{"source": "patent US20250019373A1", "about": "“ARYL OR HETEROARYL DERIVATIVE, AND PHARMACEUTICAL COMPOSITION COMPRISING SAME AS ACTIVE INGREDIENT FOR PREVENTION OR TREATMENT OF KINASE-RELATED DISEASES” (VORONOI INC., priority 2021, published 2025)"}
{"system": "HT-29 cells", "assay": "Cell necrosis inhibitory activity under necroptosis-inducing conditions (TNF-α, Z-VAD-FMK, LCL161) in HT-29 cells, Cell Titer-Glo", "type": "cell-based", "conditions": "Homo sapiens, 100 ng/mL TNF-α + 25 μM Z-VAD-FMK + Smac mimetic LCL161, 24 hours, cell viability", "protocol": "To evaluate the cell necrosis inhibitory activity of the compound according to the present invention, an experiment was conducted as follows.\nTo evaluate the efficacy of inhibiting cell necrosis under TNF-α-mediated cell death-inducing conditions, a HT-29 cell line (Korean Cell Line Bank Accession No. #30038) was cultured in RPMI-1640 (HyClone #SH3027.01) medium containing 10% fetal bovine serum (FBS) and 1% penicillin/streptomycin to analyze cell viability. More specifically, for testing, the cell line was seeded in a 96-well flat bottom plate (Corning #3903) at a concentration of 10,000 cells/well and incubated at 37° C. under a 5% CO2 condition for 24 hours. Each well was treated with 100 ng/mL TNF-α, 25 μM pan-caspase inhibitor (Z-VAD-FMK, Selleckchem #S8102), and 10 µM Smac mimetic LCL161 (Selleckchem #S7009) and allowed to react for 10 minutes. The compounds of Examples were treated at 11 concentrations (the highest concentration being 0.1 μM or 1 μM) with a 3-fold concentration gradient, and as a control, dimethyl sulfoxide (DMSO) was treated at a concentration of 0.05% (v/v), which is the same as those when the compounds were treated. The treated cells were incubated for 24 hours. To confirm the degree of cell viability, 100 μL of Cell Titer-Glo (Promega #G7573) was added to the medium of the cultured cells and cultured for additional 10 minutes, and then luminescence was measured using a microplate reader. Based on the […] of control cells that were not treated with the compound, the degree of cell necrosis inhibitory activity was calculated according to the treatment concentration of each compound. Here, the concentration at which the cell necrosis inhibitory activity was 50% was determined as an EC50 (nM) value and calculated using Prism (ver. 8.4.3 #GraphPad) software.", "units": {"EC50": "nM"}}
{"smiles": "COCC(=O)Nc1cn2nc(-c3cnc(OC)c(NC(=O)N4OCC[C@H]4c4ccccc4)c3)ccc2n1", "note": "[Example 6, (S)-N-(2-methoxy-5-(2-(2-methoxyacetamido)imidazo[1,2-b]pyridazin-6-yl)pyridin-3-yl)-3-phenylisoxazolidine-2-carboxamide]", "EC50": 0.9}
{"smiles": "CNC(=O)c1n[nH]c2cc(-c3cc(NC(=O)N4OCC[C@H]4c4ccccc4)cnc3OC)ccc12", "note": "[Example 23, (S)-N-(6-methoxy-5-(3-(methylcarbamoyl)-1H-indazol-6-yl)pyridin-3-y1)-3-phenylisoxazolidine-2-carboxamide]", "EC50": 8.1}
{"smiles": "Cc1ccc(-c2ccc3nc(N)nn3c2)cc1NC(=O)N1OCC[C@H]1c1ccccc1", "note": "[Example 32, (S)-N-(5-(2-amino-[1,2,4]triazolo[1,5-a]pyridin-6-yl)-2-methylphenyl)-3-phenylisoxazolidine-2-carboxamide]", "EC50": 0.6}
{"smiles": "Cc1ncc(-c2ccc3nc(N)nn3c2)cc1NC(=O)N1OCC[C@H]1c1cccc(C(F)(F)F)c1", "note": "[Example 41, (S)-N-(5-(2-amino-[1,2,4]triazolo[1,5-a]pyridin-6-yl)-2-methylpyridin-3-yl)-3-(3-(trifluoromethyl)phenyl)isoxazolidine-2-carboxamide]", "EC50": 1}
{"smiles": "Cc1ccc(-c2ccc3nccn3n2)cc1NC(=O)N1OCC[C@H]1c1ccccc1", "note": "[Example 112, (S)-N-(5-(imidazo[1,2-b]pyridazin-6-yl)-2-methylphenyl)-3-phenylisoxazolidine-2-carboxamide]", "EC50": 3.3}
{"smiles": "Cc1ccc(-c2ccc3nc(N)nn3c2)cc1NC(=O)N1OCC[C@H]1c1ccc(Cl)cc1", "note": "[Example 67, (S)-N-(5-(2-amino-[1,2,4]triazolo[1,5-a]pyridin-6-yl)-2-methylphenyl)-3-(4-chlorophenyl)isoxazolidine-2-carboxamide]", "EC50": 0.4}
{"smiles": "Cc1ncc(-c2csc3c(N)ncnc23)cc1NC(=O)N1OCC[C@H]1c1ccccc1", "note": "[Example 121, (S)-N-(5-(4-aminothieno[3,2-d]pyrimidine-7-y1)-2-methylpyridin-3-yl)-3-phenylisoxazolidine-2-carboxamide]", "EC50": 11.7}
{"smiles": "Cc1ccc(-c2ccc3ncnn3c2)cc1NC(=O)N1OCC[C@H]1c1ccccc1", "note": "[Example 101, (S)-N-(5-([1,2,4]triazolo[1,5-a]pyridin-6-yl)-2-methylphenyl)-3-phenylisoxazolidine-2-carboxamide]", "EC50": 6.2}
{"smiles": "Nc1nc2ccc(-c3ccc(Cl)c(NC(=O)N4OCC[C@H]4c4ccccc4)c3F)cn2n1", "note": "[Example 105, (S)-N-(3-(2-amino-[1,2,4]triazolo[1,5-a]pyridin-6-yl)-6-chloro-2-fluorophenyl)-3-phenylisoxazolidine-2-carboxamide]", "EC50": 43.8}
{"smiles": "COc1ncc(-c2ccc3nc(N)cn3n2)cc1NC(=O)N1OCC[C@H]1c1ccccc1", "note": "[Example 7, (S)-N-(5-(2-aminoimidazo[1,2-b]pyridazin-6-y1)-2-methoxypyridin-3-yl)-3-phenylisoxazolidine-2-carboxamide]", "EC50": 40}
{"smiles": "Cc1ccc(-c2ccc3nc(N)nn3c2)cc1NC(=O)N1OCC[C@H]1c1cc(F)cc(F)c1", "note": "[Example 59, (S)-N-(5-(2-amino-[1,2,4]triazolo[1,5-a]pyridin-6-yl)-2-methylphenyl)-3-(3,5-difluorophenyl)isoxazolidine-2-carboxamide]", "EC50": 0.7}
{"smiles": "Nc1nc2ccc(-c3ccc(Cl)c(NC(=O)N4OCC[C@H]4c4ccccc4)c3)cn2n1", "note": "[Example 97, (S)-N-(5-(2-amino-[1,2,4]triazolo[1,5-a]pyridin-6-yl)-2-chlorophenyl)-3-phenylisoxazolidine-2-carboxamide]", "EC50": 1.1}
{"smiles": "Cc1ccc(-c2ccn3nc(N)cc3c2)cc1NC(=O)N1OCC[C@H]1c1ccccc1", "note": "[Example 126, (S)-N-(5-(2-aminopyrazolo[1,5-a]pyridin-5-yl)-2-methylphenyl)-3-phenylisoxazolidine-2-carboxamide]", "EC50": 0.4}
{"smiles": "Cc1ccc(-c2ccn3nc(N)cc3c2)cc1NC(=O)N1CCOC[C@H]1c1ccccc1", "note": "[Example 136, (R)-N-(5-(2-aminopyrazolo[1,5-a]pyridin-5-yl)-2-methylphenyl)-3-phenylmorpholine-4-carboxamide]", "EC50": 5.4}
